Details: for log10 BCF / log10 biotransformation half-life (days): fish

Structure (SMILES) | boiling point [°C] | melting point [°C] | further results
BrC1CCCC1 | 138 |  | 
CC1CCC(C)C1=O (stereo not given) | 146 |  | 
CCOC(=O)c1ccc2ccccc2c1 | 308 | 32 | 
O=C1c2cc3ccccc3cc2-c2ccc3ccccc3c21 |  | 214 | 
COc1ccc(/C=C/c2cc(OC)cc(=O)o2)cc1 |  | 156 | 
CC(C)C(C)N (stereo not given) | 85.5 | -50 | 
CCCCC(C)(CC)CC | 164 |  | 
COc1cc(C#N)ccc1O |  | 86 | 
Cc1ccccc1CCl | 198 |  | 
COc1cc(OC)nc(NC(=O)NS(=O)(=O)c2ncccc2C(=O)N(C)C)n1 |  | 142 | log10 Koc (L/kg): 1.48
CCCCCCCCCCCCCCCCCC(C)=O |  | 57 | 
FC(F)(F)C(F)(F)Br | -21 |  | 
CCCC(C)C(C)CC (stereo not given) | 141 |  | 
C#CCOS(=O)OC1CCCCC1Oc1ccc(C(C)(C)C)cc1 (stereo not given) |  |  | log10 Koc (L/kg): 3.6; log10 vapour pressure (mmHg): -6.52
O=C(O)c1ccc(Cl)c(Cl)c1 |  |  | ready biodegradability: not readily biodegradable; log10 BCF: 0.36
CCCC/C=C\C(C)(C)O | 177 |  | 
COc1ccc2c3c1O[C@H]1[C@@H](O)CC=C4[C@@H](C2)N(C)CC[C@]431 |  | 128 | 
C=COCCCl | 108 | -70 | log10 vapour pressure (mmHg): 1.43; ready biodegradability: readily biodegradable
O=C(O)CNC(=O)c1ccccc1O |  | 168 | 
Oc1ccccc1Cl | 175 | 9.8 | log10 Henry constant (atm·m³/mol): -4.95; log10 Koc (L/kg): 2.6; log10 vapour pressure (mmHg): 0.403; ready biodegradability: not readily biodegradable; log10 BCF: 1.35; log10 biotransformation half-life (days): -0.38
CN1C(C)(C)CCCC1(C)C | 147 |  | 

Structure (SMILES) | boiling point [°C] | melting point [°C] | further results
C=CC(C)(CCC=C(C)C)OC(=O)C(C)C (stereo not given) | 229 |  | 
CCOC(=O)C(C)(C)Br | 163 |  | log10 vapour pressure (mmHg): 0.417
c1ccc(-c2ccccc2)cc1 | 256 |  | log10 Henry constant (atm·m³/mol): -3.51; log10 Koa: 6.15; log10 Koc (L/kg): 3.27; log10 biodegradation half-life (days): 1.49; log10 vapour pressure (mmHg): -2.05; ready biodegradability: readily biodegradable; log10 BCF: 2.64
Oc1ccccc1-c1ccccc1O | 320 | 109 | 
CCN | 16.6 |  | log10 Henry constant (atm·m³/mol): -4.91; log10 vapour pressure (mmHg): 3.02; ready biodegradability: readily biodegradable
Clc1cc2cccc(Cl)c2cc1Cl |  |  | log10 Koa: 7.5
CCCCCCCCCCCCCCCCS | 334 | 19 | log10 vapour pressure (mmHg): -4.99
CCOC(OCC)C(Cl)(Cl)Cl | 197 |  | 
Cc1ccccc1N | 200 | -16.3 | log10 Henry constant (atm·m³/mol): -5.7; log10 vapour pressure (mmHg): -0.585; ready biodegradability: readily biodegradable
O=C(O)/C=C/C=C/C(=O)O |  | 301 | 
Fc1c(F)c(F)c(S)c(F)c1F | 143 | -24 | 
CCCCC(CC)CN1C(=O)C2C(C1=O)C1(C(C)C)C=CC2(C)CC1 (stereo not given) |  |  | ready biodegradability: not readily biodegradable; log10 BCF: 2.97; log10 biotransformation half-life (days): 0.31
CC(C)NC(C)(C)C | 98 |  | 
OC(CCN1CCCC1)(c1ccccc1)C1CCCCC1 (stereo not given) |  | 86 | 
Cc1cccnc1N | 222 | 33.5 | 
O=C(Oc1cccc(O)c1)c1ccccc1 |  | 134 | ready biodegradability: readily biodegradable
CC(=O)S[C@@H]1CC2=CC(=O)CC[C@]2(C)[C@H]2CC[C@@]3(C)[C@@H](CC[C@@]34CCC(=O)O4)[C@H]12 |  | 208 | 
Clc1ccc2cc[nH]c2c1 |  | 90 | 
Oc1c(F)cccc1F |  | 39.5 | 
Clc1ccc(Cl)nn1 |  | 67.5 | 
CCOP(=S)(NC(C)C)Oc1ccccc1C(=O)OC(C)C (stereo not given) |  | -12 | log10 Koc (L/kg): 2.78; log10 vapour pressure (mmHg): -5.52; log10 BCF: 2.12; log10 biotransformation half-life (days): -0.51

Structure (SMILES) | boiling point [°C] | melting point [°C] | further results
C=Cc1ccccc1Cl | 189 | -63.1 | log10 vapour pressure (mmHg): -0.0173; ready biodegradability: not readily biodegradable
N#Cc1ccc(Cl)cc1 | 223 | 95 | 
O=[N+]([O-])c1ccc(F)cc1F | 207 | 9.8 | 
Cc1cc(C2(c3cc(C)c(O)c(Br)c3)OS(=O)(=O)c3ccccc32)cc(Br)c1O |  | 242 | 
O[C@H]1[C@H](O)[C@@H](O)[C@H](O)[C@@H](O)[C@H]1O (racemic) |  | 237 | 
O=C(O)[C@@H](S)[C@@H](S)C(=O)O |  | 193 | 
CC(C)OC(=O)OC(C)C | 147 |  | 
Clc1ccc2cc(Cl)c(Cl)c(Cl)c2c1 |  |  | log10 Koa: 8.35
COc1ccc(CCCO)cc1 |  | 26 | 
CCCCC(CC)COC(=O)c1ccccc1C(=O)OCC(CC)CCCC (stereo not given) | 384 | -55 | log10 Koc (L/kg): 4.94; log10 vapour pressure (mmHg): -6.85; ready biodegradability: not readily biodegradable; log10 BCF: 2.77; log10 biotransformation half-life (days): 0.44
S=C([S-])[S-] |  | -30 | 
O=C(OCCO)c1ccccc1 |  | 45 | 
O=C1CSC2(CCN(CCCN3c4ccccc4Sc4ccc(Cl)cc43)CC2)N1 |  | 155 | 
CCCSC(C)C | 132 |  | 
Nc1nncs1 |  | 191 | 
COc1nc2c(c(=O)n(C)c(=O)n2C)n1C |  | 176 | 
Oc1ccccc1 | 182 | 40.9 | log10 Henry constant (atm·m³/mol): -6.48; log10 Koc (L/kg): 1.43; log10 vapour pressure (mmHg): -0.456; ready biodegradability: readily biodegradable; log10 BCF: 1.24
ClC(Cl)=C(Cl)C(Cl)Cl | 185 |  | 
FC(F)(F)C(F)(F)C(F)(F)C(F)(F)C(F)(F)C(F)(F)C(F)(F)C(F)(F)C(F)(F)C(F)(F)Br | 198 |  | 
